Reference: EPA's ToxRefDB 2

Tests used:
dog [1] = conditions: Subchronic oral toxicity in nonrodent, beagle, Feed, dose end: 26 week
rat [2] = conditions: Subchronic oral toxicity in rodents, other, Feed, dose end: 90 day
rat [3] = conditions: Subchronic oral toxicity in rodents, Charles River Crl:CD BR, Feed, dose end: 6 week
rat [4] = conditions: Prenatal developmental toxicity study, other, Oral, Gavage/Intubation, dose end: 16 GD, group: maternal
mouse [5] = conditions: Subchronic oral toxicity in rodents, cd1, Feed, dose end: 7 week
mouse [6] = conditions: Carcinogenicity, cd1, Oral, Feed, dose end: 18 month, group: systemic
dog [7] = conditions: Subchronic oral toxicity in nonrodent, beagle, Feed, dose end: 103 day
rat [8] = conditions: Combined chronic toxicity/carcinogenicity, sprague dawley, Oral, Feed, dose end: 24 month
dog [9] = conditions: Chronic toxicity, beagle, Oral, Feed, dose end: 52 week
rabbit = conditions: Prenatal developmental toxicity study, new zealand white, Oral, Gavage/Intubation, dose end: 19 GD, group: maternal
rat [10] = conditions: Developmental neurotoxicity study; long evans; Injection; Intraperitoneal; dose end: 80 PND; group: cannot be grouped; systemic / in life observation / body weight / offspring (pup) weight + systemic / in life observation / clinical signs / abnormal movements…
[11] = group: cholinesterase, cholinesterase / cholinesterase / cholinesterase / plasma cholinesterase (che)
[12] = group: systemic, systemic / in life observation / clinical signs / defecation (diarrhea)
[13] = group: systemic, systemic / in life observation / clinical signs / defecation (diarrhea) + systemic / in life observation / clinical signs / distended …
[14] = group: cholinesterase, cholinesterase / cholinesterase / cholinesterase / brain cholinesterase (che) + cholinesterase / cholinesterase / cholinesterase / …
[15] = group: systemic, systemic / in life observation / clinical signs / body surface staining + systemic / in life observation / clinical signs / hunched posture…
[16] = group: cholinesterase, cholinesterase / cholinesterase / cholinesterase / brain cholinesterase (che)
[17] = group: cholinesterase, cholinesterase / cholinesterase / cholinesterase / brain cholinesterase (che) + cholinesterase / cholinesterase / cholinesterase / plasma …
[18] = group: systemic, systemic / in life observation / body weight / body weight gain
[19] = group: systemic, systemic / in life observation / body weight / body weight gain + systemic / in life observation / body weight / body weight
[20] = systemic / in life observation / body weight / body weight gain + systemic / in life observation / mortality / mortality + reproductive / …
[21] = systemic / in life observation / body weight / body weight gain + systemic / in life observation / mortality / mortality + systemic / in …
[22] = group: systemic, systemic / in life observation / body weight / body weight gain + systemic / in life observation / mortality / mortality + systemic / in …
[23] = systemic / in life observation / body weight / body weight gain + systemic / in life observation / clinical signs / fur (altered appearance…
[24] = group: cholinesterase, cholinesterase / cholinesterase / cholinesterase / brain (regional) cholinesterase (che) + cholinesterase / cholinesterase / cholinesterase…
[25] = group: systemic, systemic / clinical chemistry / albumin / albumin + systemic / clinical chemistry / calcium / calcium + systemic / clinical chemistry / …
[26] = group: cholinesterase, cholinesterase / cholinesterase / cholinesterase / erythrocyte cholinesterase (che)
[27] = group: systemic, systemic / clinical chemistry / sodium / sodium
[28] = group: cholinesterase, cholinesterase / cholinesterase / cholinesterase / erythrocyte cholinesterase (che) + cholinesterase / cholinesterase / cholinesterase / …
[29] = group: systemic, systemic / clinical chemistry / albumin / albumin + systemic / clinical chemistry / alkaline phosphatase (alp/alk) / alkaline phosphatase (…
[30] = reproductive / reproductive performance / resorptions / resorptions + systemic / in life observation / body weight / body weight gain + …

CCOP(=S)(OCC)OC(Cl)C(Cl)(Cl)Cl (configuration not stated) [Chlorethoxyfos]
LEL (dog [1]; [11]): 0.061 mg/kg/day
LOAEL (dog [1]; [11]): 0.578 mg/kg/day
NEL (dog [1]; [11]): < 0.061 mg/kg/day
NOAEL (dog [1]; group: cholinesterase, cholinesterase / cholinesterase / cholinesterase / plasma cholinesterase (che) + cholinesterase / cholinesterase / cholinesterase / brain (…): 0.061 mg/kg/day
LEL (dog [1]; [12]): 0.578 mg/kg/day
LOAEL (dog [1]; [12]): 0.578 mg/kg/day
NEL (dog [1]; [13]): 0.061 mg/kg/day
NOAEL (dog [1]; [13]): 0.061 mg/kg/day
LEL (rat [2]; [14]): 0.635 mg/kg/day
LOAEL (rat [2]; [14]): > 1.64 mg/kg/day
NEL (rat [2]; [14]): 0.08 mg/kg/day
NOAEL (rat [2]; [14]): ≥ 1.64 mg/kg/day
LEL (rat [2]; [15]): 1.23 mg/kg/day
LOAEL (rat [2]; [15]): 1.23 mg/kg/day
NEL (rat [2]; [15]): 0.635 mg/kg/day
NOAEL (rat [2]; [15]): 0.635 mg/kg/day
LEL (rat [3]; [16]): 0.66 mg/kg/day
LOAEL (rat [3]; [16]): 0.66 mg/kg/day
NEL (rat [3]; [17]): 0.132 mg/kg/day
NOAEL (rat [3]; [17]): 0.132 mg/kg/day
LOAEL (rat [3]; [18]): 0.958 mg/kg/day
LEL (rat [3]; [19]): 0.958 mg/kg/day
NEL (rat [3]; [19]): 0.477 mg/kg/day
NOAEL (rat [3]; [19]): 0.477 mg/kg/day
LEL (rat [4]; [20]): 0.5 mg/kg/day
LOAEL (rat [4]; [20]): 0.5 mg/kg/day
NEL (rat [4]; [21]): 0.25 mg/kg/day
NOAEL (rat [4]; [21]): 0.25 mg/kg/day
LEL (mouse [5]; [11]): 0.15 mg/kg/day
LOAEL (mouse [5]; [11]): 0.15 mg/kg/day
NEL (mouse [5]; [11]): 0.015 mg/kg/day
NOAEL (mouse [5]; [11]): 0.015 mg/kg/day
LOAEL (mouse [5]; [18]): 11.2 mg/kg/day
LEL (mouse [5]; group: systemic, systemic / in life observation / body weight / body weight gain + systemic / in life observation / body weight / body weight + systemic / in…): 11.2 mg/kg/day
NEL (mouse [5]; [22]): 0.15 mg/kg/day
NOAEL (mouse [5]; [22]): 0.15 mg/kg/day
LOAEL (mouse [6]; [23]): 14.9 mg/kg/day
NEL (mouse [6]; [23]): 0.337 mg/kg/day
NOAEL (mouse [6]; [23]): 3.25 mg/kg/day
LEL (mouse [6]; systemic / pathology gross / skin / discolored): 3.25 mg/kg/day
LEL (dog [7]; [24]): 0.125 mg/kg/day
LOAEL (dog [7]; [24]): 0.125 mg/kg/day
NEL (dog [7]; [24]): 0.0125 mg/kg/day
NOAEL (dog [7]; [24]): 0.0125 mg/kg/day
LEL (dog [7]; [25]): 1.25 mg/kg/day
LOAEL (dog [7]; [25]): > 1.25 mg/kg/day
NEL (dog [7]; [25]): 0.125 mg/kg/day
NOAEL (dog [7]; [25]): ≥ 1.25 mg/kg/day
LEL (rat [8]; [26]): 0.311 mg/kg/day
LOAEL (rat [8]; [26]): 0.311 mg/kg/day
NEL (rat [8]; [26]): 0.154 mg/kg/day
NOAEL (rat [8]; [26]): 0.154 mg/kg/day
LEL (rat [8]; [27]): 0.416 mg/kg/day
LOAEL (rat [8]; [27]): > 0.416 mg/kg/day
NEL (rat [8]; [27]): 0.208 mg/kg/day
NOAEL (rat [8]; [27]): ≥ 0.416 mg/kg/day
LEL (dog [9]; [28]): 0.591 mg/kg/day
LOAEL (dog [9]; [28]): 0.591 mg/kg/day
NEL (dog [9]; [28]): 0.065 mg/kg/day
NOAEL (dog [9]; [28]): 0.065 mg/kg/day
LOAEL (dog [9]; group: systemic, systemic / clinical chemistry / albumin / albumin): 1.86 mg/kg/day
NEL (dog [9]; [29]): 0.065 mg/kg/day
NOAEL (dog [9]; [29]): 0.591 mg/kg/day
LEL (dog [9]; group: systemic, systemic / clinical chemistry / calcium / calcium): 0.591 mg/kg/day
LOAEL (rabbit; reproductive / reproductive performance / resorptions / resorptions): 3.1 mg/kg/day
LEL (rabbit; [30]): 3.1 mg/kg/day
NEL (rabbit; [30]): 1.38 mg/kg/day
NOAEL (rabbit; [30]): 1.38 mg/kg/day

N#CCCNCCC#N [3,3'-Iminobispropanenitrile]
LEL (rat [10]): 300 mg/kg/day
LOAEL (rat [10]): > 300 mg/kg/day
NEL (rat [10]): 150 mg/kg/day
NOAEL (rat [10]): ≥ 300 mg/kg/day
